Source: article PMC8741257, “Identification of novel non-toxic and anti-angiogenic α-fluorinated chalcones as potent colchicine binding site inhibitors” (Journal of Enzyme Inhibition and Medicinal Chemistry, 2022)
Like-named read-outs stand apart in the source and are kept apart here.

Columns and labels:
[1] = system: HUVECs (human umbilical vein endothelial cells); assay: Wound healing migration assay; assay type: cell-based; conditions: 10 µM, 48 h, control 65%
Description: HUVECs (human umbilical vein endothelial cells) grown on Matrigel were commonly used as a tube formation model for studying the physiological and pathological processes of the vascular system in vitro, and a widely studied human endothelial cell type in angiogenesis. The effect of 4c on endothelial cell migration was assessed by using HUVECs. Standardised wounds were made in confluent monolayers of HUVECs and then exposed to compound 4c at 2.5, 5 and 10 µM for 48 h. […] We further evaluated the capacity of 4 s on endothelial cell invasion using a Transwell assay.
(§1) MGC-803 cells and HUVECs were seeded in 24-well plates and cultivated for 24 h at 37 °C. The cells were scribed vertically with a gun tip and washed with PBS to remove dead cells. The containing different concentrations of 4c were added to the scratched monolayers. The migrated cells were photographed under a light microscope at indicated time points from the scratch. Take a picture and use the image J software to calculate the area of the cell scratches.

[2] = system: 293 T (human embryonic kidney cell); assay: Growth inhibition of normal human cells; assay type: cell-based; conditions: HEK-293T, triplicate, mean ± SD
Description: (§2) The effect of compound 4c on three types of normal human cell lines including LO2 (human hepatocyte cells), 293 T (human embryonic kidney cell) and THP-1-derived macrophages was then determined.

[3] = system: THP-1-derived macrophages; assay: Growth inhibition of normal human cells; assay type: cell-based; conditions: Macrophage, triplicate, mean ± SD
Description: as §2

[4] = system: LO2 (human hepatocyte cells); assay: Growth inhibition of normal human cells; assay type: cell-based; conditions: triplicate, mean ± SD
Description: as §2

[5] = system: MGC-803 (human gastric cancer cells); assay: Antiproliferative activity (SRB / CCK-8 assay); assay type: cell-based; conditions: mean ± SD
Description: (§3) MCF-7, MGC-803, Hela and HepG-2 cell lines were cultured in a base medium (90% DMEM and 10% FBS), A549 and U937 were cultured in a base medium (90% PRMI-1640 and 10% FBS) at 37 °C, 5% CO2 and a saturated humidity atmosphere. All the mediums were supplemented with 10% FBS and 1% […]/streptomycin (all cells were purchased from Shanghai Institutes for Biological Sciences, Chinese Academy of Sciences, Shanghai, China).
(§4) A549, MGC-803, MCF-7, HepG2 and Hela cells were seeded at the appropriate cell line density (3 × 10^3 to 4 × 10^3 cells/well). The cells were then incubated at 37 °C for 24 h in a humidified 5%CO2 in 96-well plates prior to experiments. After a further 72 h of incubation, cell proliferation was quantified with SRB ([…]) to determine the number of surviving cells. The absorbance at 560 nm was measured by microplate. The experiment was repeated three times, and the data were listed in the form of mean and standard deviation.
(§5) MGC-803 cells were collected and seeded into 96 well plates at a density of 8000/well. The mediums containing drugs and cell suspension were added into the well. The cells were incubated in 5% CO2 incubator at 37 °C for 72 h. Each well was added 10 µL CCK8 solution, and the incubation time was 3–4 h. The absorbance value at 450 nm was measured by microplate reader. Data are calculated with GraphPad Prism5 software.

[6] = system: six human cancer cell lines (MCF-7, MGC-803, HepG2, Hela, A549, U937); assay: Antiproliferative activity, summary over the tested cancer cell lines; assay type: cell-based; conditions: read-out: IC50
Description: as §4, §5

[7] = system: Hela (human cervical cancer cells); assay: Antiproliferative activity (SRB assay); assay type: cell-based; conditions: mean ± SD, three separated experiments, 72 h
Description: as §3, §4

[8] = system: HepG2 (human liver cancer cells); assay: Antiproliferative activity (SRB assay); assay type: cell-based; conditions: mean ± SD, three separated experiments, 72 h
Description: as §3, §4

[9] = system: MCF-7 (human breast cancer cells); assay: Antiproliferative activity (SRB assay); assay type: cell-based; conditions: MCF7, mean ± SD, three separated experiments, 72 h
Description: as §3, §4

[10] = system: A549 (human non-small cell lung cancer); assay: Antiproliferative activity (SRB assay); assay type: cell-based; conditions: mean ± SD, three separated experiments, 72 h
Description: as §3, §4

HUVECs = assay: Tube formation assay on Matrigel; assay type: cell-based, human; conditions: 2.5 µM
Description: The formation of HUVEC tube represents the key steps in angiogenesis. Thus, we further tested the anti-vascular activity of 4c by performing a tube formation assay. As shown in Figure 10 HUVECs in the control group formed integrated tubules with multicentric junctions on the Matrigel matrix, while the tubes were fragmentary after exposure to 4c.
The matrix gel was thawed overnight at 4 °C and then added to 96 well plates. After incubated at 37 °C for 45 min, the matrix gel was solidified. Different concentrations of 4c were added to each well at the density of HUVECs was 1 × 10^5/well. After incubated at 37 °C for 6–8 h, the formation of tubules was observed under microscope

MGC-803 cells = assay: Wound healing migration assay; assay type: cell-based, human; conditions: 72 nM, after 48 h, control approximately 64%
Description: Metastasis is one of the leading causes of morbidity and mortality of cancer patients. Microtubules-targeting inhibitors have also been reported to interfere with cell migration and invasion. Accordingly, the in vitro would healing assay and Transwell assays were performed to investigate the inhibitory effect of compound 4c on the migration and invasion of MGC-803 cells. As shown Figure 8(A,C), the scratches healing rate in the control group was approximately 64%. By contrast, the cells treated with 4c have much smaller scratched areas recovery at all concentrations. […] Cell invasion is an important malignant behaviour during cancer metastasis. In Tanswell assay, MGC-803 cells were seeded into upper chambers with pre-coated Matrigel stimulating base membrane in order to assess the cellular invasion.
as §1

MMP of MGC-803 cells = assay: Mitochondrial membrane potential (JC-1, flow cytometry); assay type: cell-based, human; conditions: 72 nM, 48 h
Description: There is a close relationship between mitochondria and apoptosis, and a decrease in mitochondrial membrane potential is one of the irreversible events that occur early in apoptosis cells. Therefore, effect of compound 4c on MMP of MGC-803 cells was examined by cationic JC-1 staining method and flow cytometry.
The cultured cells were spread in 6-well plates with about 1.5 × 10^5 cells per well and incubated overnight at 37 °C. Different concentrations of the 4c were added to the wells, and the incubation was continued for 48 h. The wells were washed twice with JC-1 staining buffer (1×) after resuspension with an appropriate amount of JC-1 staining buffer (1×), flow cytometry assays were performed according to standard procedures

IC50 ([5]; Table 2, triplicate): 57 ± 6 nM | IC50 ([5]; three separated experiments, 72 h): 57.1 ± 6 nM | IC50 ([6]; against five of the tested cell lines, range): 25 to 202 nM | IC50 ([6]; against six cell lines, range as worded in text): 25 to 254 nM | IC50 [7]: 25 ± 1 nM | IC50 [8]: > 5000 nM | IC50 [9]: 254 ± 37 nM | IC50 [10]: 202 ± 12 nM
Structure (SMILES): COc1cc(C(=O)/C(F)=C/c2c[nH]c3cc(Br)ccc23)cc(OC)c1OC [4c, (Z)-3–(6-bromo-1H-indol-3-yl)-2-fluoro-1–(3,4,5-trimethoxyphenyl)prop-2-en-1-one]
wound closure rates [1]: 11% | IC50 [2]: 1050 ± 220 nM | IC50 [3]: 1210 ± 17 nM | IC50 [4]: 680 ± 220 nM | HUVEC cord formation, tube area and length (HUVECs): dramatically suppressed | migration rates (scratch healing) (MGC-803 cells): 10% | JC-1 green fluorescence intensity (lower gate) (MMP of MGC-803 cells; control 7.13): 55.6% | JC-1 red fluorescence intensity (upper gate) (MMP of MGC-803 cells; control 92.4): 41.3%
